For 33 molecules, IC50 results are on record in ChEMBL document CHEMBL5331060, “Bisindole natural products: A vital source for the development of new anticancer drugs” (Eur J Med Chem, 2022).

≈ marks a conversion by molar mass, not a printed value. A value given as a limit tells only on which side of the number the result lay.

What all share (format): functional, cell-based
In one assay the test system is AGS. The assay can be described thus: Antiproliferative activity against human AGS cells assessed as inhibition of cell growth incubated for 24 hrs by MTT assay. (In general: Tetrazolium dyes change colour on reduction, which living cells bring about.)
Another assay concerns L1210. The assay can be described thus: Antiproliferative activity against mouse L1210 cells assessed as inhibition of cell growth incubated for 24 hrs by MTT assay. The following applies: L1210, 24 h.
In assay [1] the test system is A549. The assay is described as follows: Antiproliferative activity against human A549 cells assessed as inhibition of cell growth incubated for 72 hrs by SRB assay. The following applies: A549, 72 h. In general terms: In SRB staining, fixed cells bind dye roughly in proportion to their protein.
Assay [2] relates to MCF7. The assay can be described thus: Antiproliferative activity against human MCF7 cells assessed as inhibition of cell growth incubated for 72 hrs by SRB assay. The following applies: MCF7, 72 h.
In assay [3] the test system is A549. The assay can be described thus: Antiproliferative activity against human A549 cells assessed as inhibition of cell growth incubated for 48 hrs by MTT assay. The following applies: A549, 48 h.
A further assay deals with SW480. The assay is described as follows: Antiproliferative activity against human SW480 cells assessed as inhibition of cell growth incubated for 48 hrs by MTT assay. The note with it: SW480, 48 h.
The subject of assay [4] is MCF7. The assay can be described thus: Antiproliferative activity against human MCF7 cells assessed as inhibition of cell growth incubated for 48 hrs by MTT assay. The following applies: MCF7, 48 h.
The subject of another assay is HL-60. The assay can be described thus: Antiproliferative activity against human HL-60 cells assessed as inhibition of cell growth incubated for 48 hrs by MTT assay. The note with it: HL-60, 48 h.
Assay [5] relates to SMMC-7721. The assay is described as follows: Antiproliferative activity against human SMMC-7721 cells assessed as inhibition of cell growth incubated for 48 hrs by MTT assay. The following applies: SMMC-7721, 48 h.
The next assay has as its system K562. The assay is described as follows: Antiproliferative activity against human K562 cells assessed as inhibition of cell growth by MTT assay.
In assay [6] the test system is A549. The assay is described as follows: Antiproliferative activity against human A549 cells assessed as inhibition of cell growth by MTT assay.
Assay [7] concerns SMMC-7721. The assay is described as follows: Antiproliferative activity against human SMMC-7721 cells assessed as inhibition of cell growth incubated for 48 hrs by MTS assay. The following applies: SMMC-7721, 48 h.

Usually IC50 stands for the point on the concentration scale where inhibition reaches its midpoint.

As to `O=C1NC[C@H](c2c[nH]c3cc(Br)ccc23)N=C1c1c[nH]c2cc(Br)ccc12` [HAMACANTHIN B], the IC50 in the assay on AGS and in the assay on L1210 was 1.1 µg/mL (≈ 2.26 µM) in each case.

`CC[C@@H]1CN(C)[C@H]2Cc3c([nH]c4ccccc34)[C@H](c3ccc4[nH]c5c(c4c3)CCN3C[C@@H]4C[C@@H](CC)[C@H]3[C@@H]5C4)C[C@H]1[C@@H]2C(=O)OC`: the IC50 with A549 [1] and with MCF7 [2] was < 10 µM each time.

Regarding `CC[C@]12C=CCN3CCc4c(n(c5cc(OC)ccc45)[C@@H](c4cc5c(cc4OC)NC4=C(C(=O)OC)C[C@]6(CC)CCCN7CC[C@@]45[C@@H]76)C1)[C@@H]32`, the IC50 with A549 [3], in the assay with SW480, in the assay on MCF7 [4], with HL-60 and with SMMC-7721 [5] was 3.24 µM each time.

On to `C/C=C1\CN(C)[C@H]2Cc3c([nH]c4ccccc34)[C@H](c3c(OC)ccc4c5c([nH]c34)[C@]3(C(=O)OC)C[C@@H]4C[C@H](CC)[C@@H]3N(CC5)[C@@H]4CC(C)=O)C[C@H]1[C@@H]2C(=O)OC`, for which the IC50 in the assay with A549 [1] and in the assay with MCF7 [2] was < 10 µM throughout.

For `CC[C@@H]1CN(C)[C@H]2Cc3c([nH]c4ccccc34)[C@H](c3cc4[nH]c5c(c4cc3OC)CCN3C[C@H]4C[C@H](CC)[C@H]3[C@@]5(C(=O)OC)C4)C[C@H]1[C@@H]2C(=O)OC`, the 50% inhibitory concentration (IC50) with A549 [1] and in the assay on MCF7 [2] was < 10 µM throughout.

As for `CO[C@@]1(C(=O)c2c[nH]c3cc(O)ccc23)N=C(c2c[nH]c3cc(Br)ccc23)C(=O)N1`, the IC50 in the assay with K562 and in the assay with A549 [6] was 24.2 µM in each case.

Take `O=C(NCC(=O)c1c[nH]c2cc(Br)ccc12)NC(=O)c1c[nH]c2cc(O)ccc12`: the IC50 in the assay on K562 and in the assay on A549 [6] was > 90 µM throughout.

On to `CC[C@@H]1CN(C)[C@H]2Cc3c([nH]c4ccccc34)[C@H](c3ccc4c5c([nH]c4c3)[C@@H]3C[C@@H]4C[C@H](CC)[C@@H]3N(CC5)[C@@H]4CC(C)=O)C[C@H]1[C@@H]2C(=O)OC`, for which the IC50 with A549 [1] and in the assay on MCF7 [2] was < 10 µM in each case.

On to `CC[C@]12C=CCN3CC[C@]4(C(=C(C(=O)OC)C1)Nc1cc(OC)c([C@@H]5[C@H]6O[C@H]6[C@@]6(CC)C=C(C(=O)OC)C7Nc8c(cc(O)c(OC)c8OC)[C@@]78CCN5[C@@H]68)cc14)[C@@H]32` (stereo partly specified), for which the IC50 in the assay on SMMC-7721 [7] came out at 2.01 µM.

`C/C=C1\CN(C)[C@H]2Cc3c([nH]c4ccccc34)[C@H](c3c(OC)ccc4c5c([nH]c34)[C@]3(C(=O)OC)C[C@@H]4C[C@H](CC)[C@@H]3N(CC5)C4)C[C@H]1[C@@H]2C(=O)OC`: the IC50 in the assay with A549 [1] and in the assay with MCF7 [2] was < 10 µM in each case.

Take `CC[C@@H]1CN(C)[C@H]2Cc3c([nH]c4ccccc34)[C@H](c3ccc4c5c([nH]c4c3)[C@]3(C(=O)OC)C[C@@H]4C[C@H](CC)[C@@H]3N(CC5)C4)C[C@@H]1[C@@H]2C(=O)OC`: the IC50 was > 10 µM in the assay on A549 [1] and < 10 µM in the assay on MCF7 [2].

For the molecule `CC[C@]12C=CCN3CCc4c(n(c5ccccc45)[C@@H](c4cc5c(cc4OC)NC4=C(C(=O)OC)C[C@]6([C@@H](C)OC(C)=O)CCCN7CC[C@@]45[C@@H]76)C1)[C@@H]32`, the IC50 in the assay on A549 [3], with SW480, with MCF7 [4], in the assay with HL-60 and with SMMC-7721 [5] was 3.24 µM each time.

Turning to `CC[C@]12CCCN3CCc4c(n(c5ccccc45)[C@@H](c4cc5c(cc4OC)NC4=C(C(=O)OC)C[C@]6(CC)CCCN7CC[C@@]45[C@@H]76)C1)[C@@H]32`, the IC50 with A549 [3], in the assay on SW480, in the assay on MCF7 [4], in the assay with HL-60 and in the assay on SMMC-7721 [5] was 3.24 µM throughout.

Turning to `CC[C@@H]1CN(C)[C@H]2Cc3c([nH]c4ccccc34)[C@H](c3cc4c5c([nH]c4cc3OC)[C@@]3(C(=O)OC)C[C@H]4C[C@@H](CC)[C@@H]3N(CC5)C4)C[C@H]1[C@@H]2C(=O)OC`, the IC50 in the assay on A549 [1] was > 10 µM; in the assay on MCF7 [2], < 10 µM.

For the molecule `CC[C@]12C=CCN3CC[C@]4(C(=C(C(=O)OC)C1)Nc1cc5c(cc14)[C@@H]1[C@H](O5)[C@@H](O)[C@@]4(CC)C=C(C(=O)OC)C5Nc6c(ccc(OC)c6O)[C@@]56CCN1[C@@H]46)[C@@H]32` (stereo partly specified), in the assay on SMMC-7721 [7], the IC50 was determined as 1.72 µM.

`CO[C@@]1(C(=O)c2c[nH]c3ccccc23)N=C(c2c[nH]c3cc(Br)ccc23)C(=O)N1`: the concentration for half-maximal inhibition (IC50) with K562 and in the assay with A549 [6] was 24.2 µM in each case.

Take `CC[C@@H]1CN(C)[C@H]2Cc3c([nH]c4ccccc34)[C@H](c3cc4[nH]c5c(c4cc3OC)CCN3[C@H](CC(C)=O)[C@H]4C[C@H](CC)[C@H]3[C@@]5(C(=O)OC)C4)C[C@H]1[C@@H]2C(=O)OC`: the IC50 in the assay with A549 [1] is > 10 µM; with MCF7 [2], < 10 µM.

In the case of `C/C=C1/CN2COC[C@]3(C(=O)OC)[C@@H]1C[C@@H](c1c(OC)ccc4c1NC1[C@@]4(O)CCN4C[C@H]5C[C@H](CC)[C@H]4[C@@]1(C(=O)OC)C5)c1[nH]c4ccccc4c1C[C@]23C` (stereo partly specified), the IC50 with A549 [3] was 10.3 µM; in the assay with SW480 it was 10.3 µM; with MCF7 [4], 4.7 µM; in the assay on HL-60, 10.3 µM; in the assay on SMMC-7721 [5], 10.3 µM.

With `O=C1N[C@H](c2c[nH]c3ccccc23)CN=C1c1c[nH]c2cc(Br)ccc12`, the IC50 in the assay with AGS and with L1210 was 1.1 µg/mL (≈ 2.7 µM) throughout.

Take `CC[C@@H]1CN(C)[C@H]2Cc3c([nH]c4ccccc34)[C@H](c3ccc4[nH]c5c(c4c3)CCN3[C@H](CC(C)=O)[C@@H]4C[C@@H](CC)[C@H]3[C@]5(C(=O)OC)C4)C[C@H]1[C@@H]2C(=O)OC`: the IC50 with A549 [1] and in the assay on MCF7 [2] was 10.9 µM throughout.

On to `C/C=C1/CN2COC[C@]3(C(=O)OC)[C@@H]1C[C@@H](c1cccc4c5c([nH]c14)[C@]1(C(=O)OC)C[C@@H]4C[C@H](CC)[C@@H]1N(CC5)[C@@H]4CC(C)=O)c1[nH]c4ccccc4c1C[C@]23C`, for which the IC50 with A549 [3], with SW480, in the assay with MCF7 [4], in the assay on HL-60 and in the assay on SMMC-7721 [5] was 2.9 µM throughout.

On to `O=C(NCC(=O)c1c[nH]c2ccccc12)NC(=O)c1c[nH]c2cc(O)ccc12`, for which the IC50 with K562 and in the assay on A549 [6] was > 90 µM in each case.

`CO[C@@]1(C(=O)c2c[nH]c3ccccc23)N=C(c2c[nH]c3ccccc23)C(=O)N1`: the IC50 with K562 and in the assay on A549 [6] was 24.2 µM each time.

Take `C/C=C1/CN(C)[C@@]2(C)Cc3c([nH]c4ccccc34)[C@H](c3c(OC)ccc4c3NC3[C@@]4(O)CCN4C[C@H]5C[C@H](CC)[C@H]4[C@@]3(C(=O)OC)C5)C[C@H]1[C@]2(COC(C)=O)C(=O)OC` (stereo partly specified): the IC50 in the assay with A549 [3], with SW480, in the assay with MCF7 [4], in the assay on HL-60 and in the assay on SMMC-7721 [5] was 2.9 µM throughout.

In the case of `O=C(c1nc(-c2c[nH]c3cc(Br)ccc23)c[nH]1)c1c[nH]c2cc(O)ccc12` [BROMOTOPSENTIN], the IC50 in the assay on AGS and in the assay with L1210 was 1.1 µg/mL (≈ 2.61 µM) throughout.

With `C/C=C1/CN(C)[C@H]2Cc3c([nH]c4ccccc34)[C@H](c3ccc4[nH]c5c(c4c3)CCN3C[C@@H]4C[C@H](CC)[C@H]3[C@@H]5C4)C[C@H]1[C@@H]2C(=O)OC`, the IC50 in the assay on A549 [1] and in the assay with MCF7 [2] was < 10 µM each time.

As to `C/C=C1/CN(C)[C@H]2Cc3c([nH]c4ccccc34)[C@H](c3ccc4[nH]c5c(c4c3)CCN3[C@H]4[C@@H](CC)C[C@H](C[C@@]54C(=O)OC)[C@@H]3CC(C)=O)C[C@H]1[C@@H]2C(=O)OC`, the 50% inhibitory concentration (IC50) with A549 [1] and with MCF7 [2] was < 10 µM each time.

`O=C1N[C@H](c2c[nH]c3cc(Br)ccc23)CN[C@H]1c1c[nH]c2cc(Br)ccc12`: the IC50 in the assay with AGS and in the assay on L1210 was 1.1 µg/mL (≈ 2.25 µM) each time.

For the molecule `C/C=C1\CN(C)[C@H]2Cc3c([nH]c4ccccc34)[C@H](c3cc4[nH]c5c(c4cc3OC)CCN3C[C@H]4C[C@H](CC)[C@H]3[C@H]5C4)C[C@H]1[C@@H]2C(=O)OC`, the IC50 with A549 [1] and in the assay on MCF7 [2] was < 10 µM throughout.

As for `CO[C@@]1(C(=O)c2c[nH]c3cc(O)ccc23)N=C(c2c[nH]c3ccccc23)C(=O)N1`, the IC50 with K562 and with A549 [6] was 24.2 µM in each case.

Regarding `CC(=O)C[C@@H]1c2c([nH]c3ccccc23)[C@H](c2c[nH]c3ccccc23)[C@H]1C(C)=O`, the IC50 with K562 turned out to be 2.2 µM.

Consider `CC[C@@H]1CN(C)[C@H]2Cc3c([nH]c4ccccc34)[C@H](c3ccc4c5c([nH]c4c3)[C@]3(C(=O)OC)C[C@@H]4C[C@H](CC)[C@@H]3N(CC5)[C@@H]4CCOC)C[C@H]1[C@@H]2C(=O)OC`, for which the IC50 in the assay on A549 [1] came to 1.19 µM; in the assay with MCF7 [2], 2.25 µM.

Consider `CC[C@@H]1CN(C)[C@H]2Cc3c([nH]c4ccccc34)[C@H](c3c(OC)ccc4c5c([nH]c34)[C@]3(C(=O)OC)C[C@@H]4C[C@H](CC)[C@@H]3N(CC5)[C@@H]4CC(C)=O)C[C@H]1[C@@H]2C(=O)OC`, for which the concentration for half-maximal inhibition (IC50) with A549 [1] and with MCF7 [2] was 10.9 µM throughout.
